Experimental data reported in patent US10981884B2, “Process for the preparation of epoprostenol sodium of enhanced stability” (CHINOIN GYÓGYSZER ÉS VEGYÉSZETI TERMÉKEK GYÁRA ZRT., priority 2016, dated 2021).
Several values for one entry are separate records, joined by “and”; a condition that tells them apart may be missing. Identical values can stand only once.

Assays:
[1] = pH of 1% aqueous lyophilisate solution; format: physicochemical
Procedure: (§1) For this purpose the excess alkali which may be present in the epoprostenol Na salt was removed with strongly acidic cation exchange DOWEX resin, to the aqueous solution of the salt not containing excess alkali, different amounts of sodium hydroxide were added and the obtained solutions were lyophilized. From the 1% aqueous lyophilisate solutions we measured the pH and started accelerated stability studies at room temperature, in closed glass vessels.

[2] = Storage stability in deep-freezer (−20±5° C.), 6-oxo-PGF1alpha impurity content by HPLC; format: physicochemical; conditions: 4-5-6% NaOH excesses compared
[3] = Accelerated stability study of lyophilisates at room temperature in closed glass vessels, active ingredient content followed by HPLC; format: physicochemical; conditions: closed glass vessel
Procedure: as §1, with “We investigated the effect of the sodium hydroxide amount used for the salt formation on the stability of the acid-sensitive epoprostenol Na. For” for “For”, “vessels. The change of the active ingredient content of the stability samples was followed by HPLC after 0, 24, 48 and 144 hours. From the measured active ingredient contents decomposition rates of epoprostenol Na have been calculated (Table 1.).” for “vessels.”

[4] = Storage stability in refrigerator (5±3° C.), 6-oxo-PGF1alpha impurity content by HPLC; format: physicochemical; conditions: for 6-oxo-PGF1alpha content (HPLC): refrigerator (5 ± 3° C.), 4 mass % NaOH excess
Procedure: (§2) Based on these unexpected experimental results we modified our new technology, we dissolved the funnel-wet, crystalline epoprostenol sodium salt in water, to the aqueous solution we added 2M NaOH solution in such an amount that the product, after lyophilisation contains 4 mass % excess of sodium hydroxide. The epoprostenol Na prepared by the new method may be stored in refrigerator (5±3° C.) for at least 6 months (Table 3.).

[5] = −30° C., white powder; cited from earlier work
[6] = Storage stability in deep-freezer (−20±5° C.), 6-oxo-PGF1alpha impurity content by HPLC; format: physicochemical; conditions: for 6-oxo-PGF1alpha content (HPLC): deep-freezer (−20 ± 5° C.), 4 mass % NaOH excess
Procedure: as §2, with “The stability of the” for “The”, “by this” for “by the”, “method is excellent, it can” for “method may”, “in deep-freezer (−20±5°” for “in refrigerator (5±3°”, “least 3 years.” for “least 6 months (Table 3.).”

[7] = aqueous solution at physiological pH; cited from earlier work

Structure (SMILES): CCCCC[C@H](O)/C=C/[C@@H]1[C@H]2C/C(=C/CCCC(=O)[O-])O[C@H]2C[C@H]1O.[Na+] [Epoprostenol Na, (5Z,9α,11α,13E,15S)-6,9-Epoxy-11,15-dihydroxyprosta-5,13-dien-1-acid sodium salt]
- pH (1% aqueous solution) ([1]; lyophilisate with 0.25 mass % NaOH added, sodium salt): 9.98 and 10.14
- pH (1% aqueous solution) ([1]; lyophilisate with 2.5 mass % NaOH added): 11.64
- pH (1% aqueous solution) ([1]; lyophilisate with 3.0 mass % NaOH added): 11.70
- pH (1% aqueous solution) ([1]; lyophilisate with 4.0 mass % NaOH added): 11.78
- pH (1% aqueous solution) ([1]; lyophilisate with 5.0 mass % NaOH added): 11.86
- pH (1% aqueous solution) ([1]; lyophilisate with 5.5 mass % NaOH added): 11.90
- pH (1% aqueous solution) ([1]; lyophilisate with 6.0 mass % NaOH added): 11.92
- pH (1% aqueous solution) ([1]; lyophilisate with 7.5 mass % NaOH added): 12.00
- pH (1% aqueous solution) ([1]; lyophilisate with 12.5 mass % NaOH added): 12.15
- stability in the storage praxis [2]: equally good
- PGI2Na decomposition ([3]; 0.25 mass % NaOH added, sodium salt): 34.9 %/month and 34.6 %/month
- PGI2Na decomposition ([3]; 2.5 mass % NaOH added, sodium salt): 10.9 %/month and 10.6 %/month
- PGI2Na decomposition ([3]; 3.0 mass % NaOH added): 8.8 %/month
- PGI2Na decomposition ([3]; 4.0 mass % NaOH added): 4.5 %/month
- PGI2Na decomposition ([3]; 5.0 mass % NaOH added): 1.7 %/month
- PGI2Na decomposition ([3]; 5.5 mass % NaOH added): 1.3 %/month
- PGI2Na decomposition ([3]; 6.0 mass % NaOH added): 1.7 %/month
- PGI2Na decomposition ([3]; 7.5 mass % NaOH added): 3.1 %/month
- PGI2Na decomposition ([3]; 12.5 mass % NaOH added): 3.5 %/month
- 6-oxo-PGF1alpha content (HPLC) ([4]; month 0): 0.2 mass %
- 6-oxo-PGF1alpha content (HPLC) ([4]; month 1): 0.3 mass %
- 6-oxo-PGF1alpha content (HPLC) ([4]; month 3): 0.4 mass %
- 6-oxo-PGF1alpha content (HPLC) ([4]; month 6): 0.2 mass %
- storage time (may be stored) ([4]; refrigerator (5±3° C.), lyophilisate with 4 mass % NaOH excess): at least 6 months
- time lyophilisate remained stable [5]: at least two
- 6-oxo-PGF1alpha content (HPLC) ([6]; month 0): 0.2 mass %
- 6-oxo-PGF1alpha content (HPLC) ([6]; month 1): 0.2 mass %
- 6-oxo-PGF1alpha content (HPLC) ([6]; month 3): 0.2 mass %
- 6-oxo-PGF1alpha content (HPLC) ([6]; month 6): 0.2 mass %
- 6-oxo-PGF1alpha content (HPLC) ([6]; month 9): 0.2 mass %
- 6-oxo-PGF1alpha content (HPLC) ([6]; month 12): 0.2 mass %
- 6-oxo-PGF1alpha content (HPLC) ([6]; month 18): 0.2 mass %
- 6-oxo-PGF1alpha content (HPLC) ([6]; month 24): 0.2 mass %
- 6-oxo-PGF1alpha content (HPLC) ([6]; month 36): 0.2 mass %
- storage time (can be stored) ([6]; deep-freezer (−20±5° C.), lyophilisate with 4 mass % NaOH excess): at least 3 years

Structure (SMILES): CCCCC[C@H](O)/C=C/[C@@H]1[C@H]2C/C(=C/CCCC(=O)O)O[C@H]2C[C@H]1O [prostacyclin]
- half-life [7]: 3 to 4 min
